Measurements reported in US7626027B2, “Substituted 1H-pyrrolo[2,3-c]pyridine-2-carboxamides and related analogs as inhibitors of casein kinase Iε” (Aventis Pharmaceuticals Inc, priority 2003, dated 2009).

target: T1, casein kinase 1ε (Homo sapiens, UniProt P49674); experiment: Casein Kinase Epsilon 33P-ATP Filter Plate Assay; type: biochemical; conditions: not given
T1 construct: made in house
Excerpt: Casein Kinase Epsilon ^33P-ATP Filter Plate Assay for Screening CK1 Inhibitors Purpose: This assay measures the effect of compounds to inhibit the phosphorylation of the substrate casein by the enzyme casein kinase 1ε using an in vitro ^33P-ATP filtration assay.
Equipment: • Beckman Biomek 2000 Liquid Handling Robot • Beckman Multimek 96 Automated 96 Channel Pipettor • Millipore Vacuum Manifold Basic Kit # MAVM0960R • Titertek Multidrop Liquid Dispenser • Packard TopCount NXT Liquid Scintillation Counter
Enzyme: • Casein Kinase 1ε final concentration 0.58 mg/ml obtained from fermentation and purification processes performed by Aventis Pharmaceuticals Inc., France. The above are stored as 100 μL aliquots at minus 80° C.
Compounds: • Compounds for testing are supplied as frozen 10 mM compound stock dissolved in 100% DMSO. Assay Conditions:
Final total assay volume per well is equal to 50 μL made up as follows: • 5 μL of diluted compound stock ([…], 0.1, 0.01 or 0.001 μM), • 5 μL of dephosphorylated casein final concentration 0.2 μg/μL, • 20 μL of CK1ε final concentration 3 ng/μL, and • 20 μL of γ-^33P-ATP final concentration 0.02 μCi/μL mixed with cold ATP (10 μM final). Methodology: • 1. 500 mL of fresh assay buffer is made: 50 mM Tris pH 7.5, 10 mM MgCl2, 2 mM DTT and 1 mM EGTA • 2. Compounds to be evaluated are obtained as 10 μL of 10 mM stock dissolved in 100% DMSO. Using a Biomek 2000 liquid handling robot, serial dilutions are made to yield 10, 1, 0.1, 0.01 and 0.001 μM final compound dilutions added as 5 μL additions to Falcon U bottom plates. […] A routine screening assay will consist of 32 compounds, which equals 4 assay plates. • 3. Assay plate maps are set up according to the following pattern
• 4. […] Finally 20 μL […] (0.02 μCi/μL)/10 μM cold ATP are added (equals approximately 2×10^6 CPM per well). • 6. The Falcon U-Bottom assay plate containing the above 50 μL reaction volume is vortexed and then incubated at room temperature for 2 hours. • 7. At the end of 2 hours, the reaction is stopped by the addition of 65 μL of ice cold 2 mM cold ATP (made up in assay buffer) to the assay plates using a Beckman Multimek • 8. At the same time 25 μL 100% ice cold TCA made up in distilled H2O is added to a matching number of Millipore MAPH filter plates. • 9. Using a handheld 8-channel pipettor, 100 μL of the reaction mixture is transferred from the Falcon U-Bottom Plate to the Millipore MAPH filter plates presoaked with TCA. • 10. The Millipore MAPH filter plates are mixed gently and allowed to sit at room temperature for at least 30 minutes to precipitate the proteins. • 11. After 30 minutes the filter plates are placed on a Millipore vacuum manifold and filtered at no more than 8 mm Hg as the MAPH filters tend to “air lock” at higher vacuum settings. • 12. The filter plates are sequentially washed and filtered with 2×150 μL 20% TCA, 2×150 μL 10% TCA and 2×150 μL 5% TCA (total of 6 washes per plate/900 μL per well). • 13. Plates are allowed to dry overnight at room temperature. The next day 40 μL Packard Microscint-20 Scintillation Fluid is added per well using a Titertek Multidrop dispenser; the plates are sealed and counted for 2 minutes/well in a Packard Topcount NXT Scintillation Counter (CPM values/well are captured). Calculation: • 1. Counts Per Minute (CPM) data is captured and imported into a proprietary data calculation and archiving database (Activity Base by IDBS version 5.0). • 2. Column 1 for each plate reflects total phosphorylation activity of the enzyme in the absence of any inhibiting compound and thus represents 100%. Column 12 reflects any nonspecific phosphorylation/retained radioactivity activity in the absence of inhibiting compound and enzyme.

T1 sequence (P49674 whole entry): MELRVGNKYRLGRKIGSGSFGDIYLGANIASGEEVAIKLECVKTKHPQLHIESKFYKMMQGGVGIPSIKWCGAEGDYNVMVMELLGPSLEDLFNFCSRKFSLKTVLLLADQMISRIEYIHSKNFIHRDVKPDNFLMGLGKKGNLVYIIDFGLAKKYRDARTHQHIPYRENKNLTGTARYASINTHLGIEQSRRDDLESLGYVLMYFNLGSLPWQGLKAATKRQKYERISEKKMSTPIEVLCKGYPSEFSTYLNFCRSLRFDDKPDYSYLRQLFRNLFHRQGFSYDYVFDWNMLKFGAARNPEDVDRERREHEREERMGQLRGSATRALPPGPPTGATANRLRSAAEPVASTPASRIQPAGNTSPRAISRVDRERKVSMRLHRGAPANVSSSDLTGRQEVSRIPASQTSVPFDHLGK

Row | SMILES | IC50
1 | NC(=O)c1[nH]c2cccnc2c1Sc1cccc(Cl)c1Cl [Ia-9, 3-(2,3-Dichlorophenylsulfanyl)-1H-pyrrolo[3,2-b]pyridine-2-carboxylic acid amide] | > 10000 nM
2 | NC(=O)c1[nH]c2ccncc2c1Sc1ccc(Cl)cc1 [Ib-3] | 7960 nM
3 | NC(=O)c1[nH]c2cccnc2c1Sc1cc(Cl)ccc1Cl [Ia-13, 3-(2,5-Dichloro-phenylsulfanyl)-1H-pyrrolo[3,2-b]pyridine-2-carboxylic acid amide] | > 10000 nM
4 | CNC(=O)c1[nH]c2cccnc2c1Sc1cccc(Cl)c1 [Ia-31] | > 10000 nM
5 | NC(=O)c1[nH]c2cnccc2c1Sc1cccc(F)c1 [Ic-3, 3-(3-Fluoro-phenylsulfanyl)-1H-pyrrolo[2,3-c]pyridine-2-carboxylic acid amide] | 1840 nM
6 | CNC(=O)c1c(Sc2ccccc2)c2ncccc2n1C [Ia-29, 1-Methyl-3-phenylsulfanyl-1H-pyrrolo[3,2-b]pyridine-2-carboxylic acid methylamide] | > 10000 nM
7 | NC(=O)c1[nH]c2cccnc2c1Sc1ccncc1 [Ia-27, 3-(Pyridin-4-sulfanyl)-1H-pyrrolo[3,2-b]pyridine-2-carboxylic acid amide] | 2980 nM
8 | CCc1ccccc1Sc1c(C(N)=O)[nH]c2cccnc12 [Ia-23, 3-(2-Ethyl-phenylsulfanyl)-1H-pyrrolo[3,2-b]pyridine-2-carboxylic acid amide] | 6480 nM
9 | NC(=O)c1[nH]c2cnccc2c1Sc1ccccc1C(F)(F)F [Ic-6, 3-(2-Trifluoromethyl-phenylsulfanyl)-1H-pyrrolo[2,3-c]pyridine-2-carboxylic acid amide] | 759 nM
10 | COc1ccc2[nH]c(C(N)=O)c(Sc3cccc(F)c3)c2n1 [Ia-35, 3-(3-Fluoro-phenylsulfanyl)-5-methoxy-1H-pyrrolo[3,2-b]pyridine-2-carboxylic acid amide] | 896 nM
11 | NC(=O)c1[nH]c2cnccc2c1Sc1ccccc1OC(F)(F)F [Ic-7, 3-(2-Trifluoromethoxy-phenylsulfanyl)-1H-pyrrolo[2,3-c]pyridine-2-carboxylic acid amide] | 1290 nM
12 | NC(=O)c1[nH]c2cccnc2c1Sc1cccc(C(F)(F)F)c1 [Ia-11, 3-(3-Trifluoromethyl-phenylsulfanyl)-1H-pyrrolo[3,2-b]pyridine-2-carboxylic acid, amide] | 709 nM
13 | NC(=O)c1[nH]c2cnccc2c1S(=O)(=O)c1ccccc1 [Ic-2, 3-Benzenesulfonyl-1H-pyrrolo[2,3-c]pyridine-2-carboxylic acid amide] | > 10000 nM
14 | CNC(=O)c1[nH]c2cccnc2c1Sc1ccccc1 [Ia-33, 3-Phenylsulfanyl-1H-pyrrolo[3,2-b]pyridine-2-carboxylic acid methylamide] | > 10000 nM
15 | CNC(=O)c1[nH]c2cccnc2c1Sc1cccc(OC(F)(F)F)c1 [Ia-30] | > 10000 nM
16 | NC(=O)c1[nH]c2cccnc2c1Sc1ccc([N+](=O)[O-])cc1 [Ia-17, 3-(4-Nitro-phenylsulfanyl)-1H-pyrrolo[3,2-b]pyridine-2-carboxylic acid amide] | 9790 nM
17 | Cc1cc(C)cc(Sc2c(C(N)=O)[nH]c3cccnc23)c1 [Ia-21, 3-(3,5-Dimethyl-phenylsulfanyl)-1H-pyrrolo[3,2-b]pyridine-2-carboxylic acid amide] | 6880 nM
18 | NC(=O)c1[nH]c2ccncc2c1Sc1ccccc1 [Ib-1, 3-Phenylsulfanyl-1H-pyrrolo[3,2-c]pyridine-2-carboxylic acid amide] | 1130 nM

The next lines start with the values.

Row | IC50 | SMILES
19 | 388 nM | NC(=O)c1[nH]c2cnccc2c1Sc1ccccc1 [Ic-1, 3-Phenylsulfanyl-1H-pyrrolo[2,3-c]pyridine-2-carboxylic acid amide]
20 | 424 nM | NC(=O)c1[nH]c2cccnc2c1Sc1cccc(N)c1 [Ia-16, 3-(3-Amino-phenylsulfanyl)-1H-pyrrolo[3,2-b]pyridine-2-carboxylic acid amide]
21 | 339 nM | Cn1c(C(N)=O)c(Sc2ccccc2)c2ncccc21 [Ia-34, 1-Methyl-3-phenylsulfanyl-1H-pyrrolo[3,2-b]pyridine-2-carboxylic acid amide]
22 | 669 nM | COc1ccccc1Sc1c(C(N)=O)[nH]c2cccnc12 [Ia-14, 3-(2-Methoxy-phenylsulfanyl)-1H-pyrrolo[3,2-b]pyridine-2-carboxylic acid amide]
23 | 190 nM | NC(=O)c1[nH]c2cccnc2c1Sc1ccccn1 [Ia-26, 3-(Pyridin-2-sulfanyl)-1H-pyrrolo[3,2-b]pyridine-2-carboxylic acid amide]
24 | 219 nM | NC(=O)c1[nH]c2cccnc2c1Sc1cccc(OC(F)(F)F)c1 [Ia-24, 3-(3-Trifluoromethoxy-phenylsulfanyl)-1H-pyrrolo[3,2-b]pyridine-2-carboxylic acid, amide]
25 | 442 nM | COc1ccccc1Sc1c(C(N)=O)[nH]c2cnccc12 [Ic-8, 3-(2-Methoxy-phenylsulfanyl)-1H-pyrrolo[2,3-c]pyridine-2-carboxylic acid amide]
26 | 466 nM | NC(=O)c1[nH]c2ccncc2c1Sc1cccc(F)c1 [Ib-2]
27 | 140 nM | Cc1ccccc1Sc1c(C(N)=O)[nH]c2cccnc12 [Ia-19, 3-o-Tolylsulfanyl-1H-pyrrolo[3,2-b]pyridine-2-carboxylic acid amide]
28 | 123 nM | CCCn1c(C(N)=O)c(Sc2ccccc2)c2ncccc21 [Ia-37, 3-Phenylsulfanyl-1-propyl-1H-pyrrolo[3,2-b]pyridine-2-carboxylic acid amide]
29 | 53 nM | NC(=O)c1[nH]c2cccnc2c1Sc1cccs1 [Ia-28, 3-(Thiophen-2-ylsulfanyl)-1H-pyrrolo[3,2-b]pyridine-2-carboxylic acid amide]
30 | 86 nM | COc1cccc(Sc2c(C(N)=O)[nH]c3ccc(OC)nc23)c1 [Ia-36, 3-(3-Methoxy-phenylsulfanyl)-5-methoxy-1H-pyrrolo[3,2-b]pyridine-2-carboxylic acid amide]
31 | 291 nM | NC(=O)c1[nH]c2cnccc2c1Sc1ccccn1 [Ic-9, 3-(Pyridin-2-sulfanyl)-1H-pyrrolo[2,3-c]pyridine-2-carboxylic acid amide]
32 | 375 nM | NC(=O)c1[nH]c2cnccc2c1Sc1cccc(Cl)c1 [Ic-5, 3-(3-Chloro-phenylsulfanyl)-1H-pyrrolo[2,3-c]pyridine-2-carboxylic acid amide]
33 | 397 nM | COc1cccc(Sc2c(C(N)=O)[nH]c3cnccc23)c1 [Ic-4, 3-(3-Methoxy-phenylsulfanyl)-1H-pyrrolo[2,3-c]pyridine-2-carboxylic acid amide]

same assay, conditions: phosphorylation of casein, 10 μM cold ATP, 2 hours room temperature; * denotes average of 2 or more determinations; read-out: Casein Kinase Iε 33P-ATP Filter Plate Assay IC50

Row | SMILES | IC50
34 | CNC(=O)c1[nH]c2cccnc2c1Sc1cccc(F)c1 [Ia-32] | > 10000 nM
